Assay results taken from US7374901B2, “Method of analyzing coenzyme Q-10 and two-electron reduction product thereof and analysis system” (Shiseido Company Ltd., priority 2002, dated 2008).

Legend:
[1] = Storage stability of methanol/hexane extraction liquid, conventional pretreatment (FIG. 3); assay type: physicochemical; conditions: various storage temperatures (FIG. 3)
Protocol: In this case, since the measurement is influenced by a water-soluble antioxidation substance in the specimen, such as vitamin C and uric acid, etc., a pretreatment is performed for subjecting the specimen to an extraction treatment with methanol/hexane so as to distribute the water-soluble antioxidation substance into a methanol phase and the coenzyme Q-10, etc., into a hexane phase.
It is therefore necessary to perform analysis immediately after the extraction of the specimen. […] Herein, each temperature indicates a storage temperature of the hexane extraction liquid in FIG. 3.

[2] = Storage stability of isopropyl alcohol extracted liquid from human blood plasma (FIG. 5); assay type: physicochemical; conditions: isopropyl alcohol extract of human blood plasma, stored at around 4° C., even after at least 11 hours
Protocol: 50 μl of human blood plasma as a specimen is sampled (S-1 in FIG. 4), 950 μl of isopropyl alcohol is added into it (S-2 in FIG. 4), and then they are mixed sufficiently. Subsequently, they are subjected to a centrifugal separator at a rotational speed of 12,000 rpm for 3 minutes and at a temperature of 4° C. Thus, coenzyme Q-10 and a 2-electron reduced form thereof are extracted from the specimen into an isopropyl alcohol phase (S-3 in FIG. 4).
When an extracted liquid into which the coenzyme Q-10, etc., has been extracted is stored at a temperature around 4° C. […] Thus, the alteration of a stored analytical sample can be prevented. Additionally, the longitudinal axis in regard to coenzyme Q-10 in FIG. 5(b) represents the ratio (molar-ratio) of the coenzyme Q-10 occupied in the total quantity of the coenzyme Q-10 and the 2-electron reduced form thereof.

stability / oxidation in the hexane extraction liquid after pretreatment until injection into HPLC [1]	oxidation of the 2-electron reduced form during storage of the extracted liquid [2]	Compound
chemically unstable	–	COC1=C(OC)C(=O)C(C/C=C(\C)CC/C=C(\C)CC/C=C(\C)CC/C=C(\C)CC/C=C(\C)CC/C=C(\C)CC/C=C(\C)CC/C=C(\C)CC/C=C(\C)CCC=C(C)C)=C(C)C1=O [coenzyme Q-10, 2,3-dimethoxy-5-methyl-6-polyprenyl-1,4-benzoquinone]
oxidized at a substantial rate	rarely oxidized	COc1c(O)c(C)c(C/C=C(\C)CC/C=C(\C)CC/C=C(\C)CC/C=C(\C)CC/C=C(\C)CC/C=C(\C)CC/C=C(\C)CC/C=C(\C)CC/C=C(\C)CCC=C(C)C)c(O)c1OC [2-electron reduced form of coenzyme Q-10]
